Data published in US20020183384A1, “Methods of treating nuclear factor-kappa B mediated diseases and disorders” (priority 2001, published 2002).

Tested on: NF-κB mediated transcription
Experiment: NF-κB driven β-lactamase reporter assay in ECV-304 NF-κB.βlaZ cells (AURORA CCF2 fluorescence)
Format: cell-based, human
Settings: 10 μM compound; ECV-304 NF-κB.βlaZ cells stimulated with 10 ng/mL TNF-α or 100 pg/mL IL-1β, 6 hours at 37° C.; inhibition of maximum blue/green ratio
Description: Introduction: Described below is an in vitro, cell-based, high throughput screening assay that reliably identifies inhibitors of NF-κB mediated transcription.
The assay takes advantage of AURORA (Aurora Bioscience Corporation, La Jolla, Calif.) fluorescence technology. Endothelial cell vein-304 (ECV-304) cells, an endothelial-like immortalized cell type, may be stably transfected with a plasmid vector containing the cDNA for the enzyme β-lactamase (under the control of a basal promoter, Stratagene pNFκB-luc vector) and 5 copies of an human immunodeficiency virus-1 (HIV-1) NF-κB binding site. ECV-304 cells are described by Takahashi K. et al. in Spontaneous Transformation and Immobilization of Human Endothelial Cells, In Vitro Cell. Dev. Biol. 1990;25:265-274. Activation of NF-κB in ECV-304 by cytokines such as TNF-α or interleuken-1 beta (IL-1β) results in the production of β-lactamase, which cleaves a green fluorescent substrate (excitation/emission wavelengths 395 nm1530 nm) to yield a blue fluorescent product (excitation/emission wavelengths 395 nm/460 nm). Visually, the uncleaved green fluorescent substrate is sequestered intracellularly and emits green fluorescence, while the cleaved product emits blue fluorescence. Fluorescence is quantitated spectrophotometrically, and the spectral intensity of blue fluorescence versus green fluorescence can be used to calculate the degree of activation of NF-κB.
The assay was performed as outlined here and described in detail below. ECV-304 cells permanently transfected with the NF-κB driven β-lactamase gene (ECV-304 NF-κB.βlaZ) were plated in clear-bottom, black 96-well plates (1.25×10^4 cells/well) in media-199 (M-199) media containing 2% fetal bovine serum (FBS). […] The AURORA fluorescent disclosing reagent was then added. After one additional hour, the plates were read in a fluorometer at the blue 395 nm/460 nm (excitation/emission) and green 395 nm/530 nm wavelengths. Then the blue/green emission ratio was calculated. […] An IC50 for said sulfonylaminocarbonyl derivative was determined from a dose-response curve. This assay was designed to be optionally run in either high or low throughput screening modes.
Five copies of the HIV-1 NF-κB binding site (5′-[…]-3′) along with a TATA box were inserted into the EcorRI/BamHI sites of plasmid pMCRBlaZ to create plasmid p5×KBBlaZ, which procedure is illustrated in Scheme 1 below. [formula]
Cells were selected for antibiotic resistance with Zeocin for approximately 2 weeks. After the stable population had been expanded to a significant number of cells, it was stimulated with IL-1β and stained with AURORA CCF2 dye, a membrane permeant, intracellularly-trapped, fluorescent substrate. Cells that fluoresced blue (indicating a positive response of the NF-κB/β-lactamase reporter to stimulation by IL-1β) in the stimulated/stained population were then sorted by flow cytometry into a pool. The pool was expanded and stained with CCF2, and then the cells that fluoresced green from this unstimulated population (indicating a low background of the NF-κB/β-lactamase reporter construct) were cloned by flow cytometry after adding 1 cell per well in 96-well plates. Clones were allowed to expand. Each cloned cell line was then examined for fold stimulation after stimulation with IL-1β using a CCF2 reporter assay, and these stimulated cells were compared to unstimulated cells.
Cells: ECV-304 NF-κB β-Lactamase clone 1E8
Inhibitors: Prepared stock solutions of aminosulfonyl derivatives at 10 mM concentration in DMSO;
c) Added 10 μL of B into appropriate well in assay plate (the final concentration of drug is 10 μM), and […]

With `CC1(C)OCC(NC(=O)NS(=O)(=O)NCC23CC4CC(CC(C4)C2)C3)C(c2ccccc2)O1` (stereo not drawn) [Example 104, Urea, N-(2,2-dimethyl-4-phenyl-1,3-dioxan-5-yl)-N′-[[(tricyclo[3.3.1.1^3,7]dec-1-ylmethyl)amino]sulfonyl]-, (4S-#cis/)-] the “Percent Inhibition at 10 μM” value was less than 10%.
With `COC(=O)C(C)(Cc1c[nH]c2ccccc12)NS(=O)(=O)NC(=O)OC1C2CC3CC(C2)CC1C3` (racemic) [Example 101, DL-Tryptophan, α-methyl-N-[[[(tricyclo[3.3.1.1^3,7]dec-2-yloxy)-carbonyl]amino]sulfonyl]-, methyl ester] the “Percent Inhibition at 10 μM” value was less than 10%.

Same assay, conditions: 10 μM compound; ECV-304 NF-κB.βlaZ cells stimulated with 10 ng/mL TNF-α or 100 pg/mL IL-1β, 6 hours at 37° C.; inhibition of maximum blue/green ratio; 10 µM

With `CCCCCCCCCCCCOC(=O)NS(=O)(=O)Nc1c(C(C)C)cccc1C(C)C` [Example 250, Carbamic acid, [[[2,6-bis(1-methylethyl)phenyl]amino]sulfonyl]-, dodecyl ester] the “Percent Inhibition at 10 μM” value was less than 10%.

Same assay, conditions: Homo sapiens, ECV-304, 6 h, 10 μM compound; ECV-304 NF-κB.βlaZ cells stimulated with 10 ng/mL TNF-α or 100 pg/mL IL-1β, 6 hours at 37° C.; inhibition of maximum blue/green ratio; read-out: Percent Inhibition at 10 μM

Going from `CC[C@H](C=C[C@@H](C)[C@H]1CC[C@H]2[C@@H]3CC=C4C[C@H](OC(=O)NS(=O)(=O)Oc5c(C(C)C)cccc5C(C)C)CC[C@]4(C)[C@H]3CC[C@]12C)C(C)C` [Example 118, Stigmasta-5,22-dien-3-ol, [[2,6-bis(1-methylethyl)phenoxy]sulfonyl]-carbamate, (3α)-] to `CC(C)c1cc(C(C)C)c(NC(=O)NS(=O)(=O)Oc2c(C(C)C)cccc2C(C)C)c(C(C)C)c1` [Example 177, Sulfamic acid, [[[2,4,6-tris(1-methylethyl)phenyl]amino]carbonyl]-, 2,6-bis(1-methylethyl)phenyl ester], the inhibition at 10 µM rises from less than 10% to 63.6%.

First: CC(C)c1cccc(C(C)C)c1NC(=O)NS(=O)(=O)N(CCCN(C)C)CCCN(C)C [Example 37, N-[[bis[3-(dimethylamino)propyl]amino]sulfonyl]-N′-[2,6-bis(1-methylethyl)phenyl]-urea]
Second: CC(C)CN(CC(C)C)S(=O)(=O)NC(=O)Nc1c(C(C)C)cccc1C(C)C [Example 68, Urea, N-[2,6-bis(1-methylethyl)phenyl]-N′-[[bis(2-methylpropyl)amino]-sulfonyl]-]
The inhibition at 10 µM of the first is lower: less than 10% for the first, 34.3% for the second.

First: CC(C)c1cc(C(C)C)c(CC(=O)NS(=O)(=O)Oc2c(C(C)C)cc(NC(=O)[C@@H](N)CCC(N)=O)cc2C(C)C)c(C(C)C)c1 [Example 231, [2-(2,4,6-Triisopropyl-phenyl)-acetyl]-sulfamic acid 4-((S)-2-amino-4-carbamoyl-butyrylamino)-2,6-diisopropyl-phenyl ester; compound with trifluoro-acetic acid]
Second: CCOC(=O)CCNC(=O)Nc1cc(C(C)C)c(OS(=O)(=O)NC(=O)Cc2c(C(C)C)cc(C(C)C)cc2C(C)C)c(C(C)C)c1 [Example 194, 3-[3-(3,5-Diisopropyl-4-{[(2,4,6-triisopropyl-phenyl)-acetyl]-sulfamoyloxy}-phenyl)-ureido]-propionic acid ethyl ester]
The inhibition at 10 µM of the first is lower: 78.1% for the first, 89.8% for the second.

First: CCC(C)C(C(=O)NS(=O)(=O)Oc1c(C(C)C)cccc1C(C)C)c1ccccc1 (stereo not shown) [Example 167, (3-Methyl-2-phenyl-pentanoyl)-sulfamic acid 2,6-diisopropyl-phenyl ester]
Second: CC(C)c1cccc(C(C)C)c1OS(=O)(=O)NC(=O)NC(c1ccccc1)(c1ccccc1)c1ccccc1 [Example 223, Sulfamic acid, [[(triphenylmethyl)amino]carbonyl]-, 2,6-bis(1-methylethyl)phenyl ester]
The inhibition at 10 µM of the first is lower: 40% for the first, 68.2% for the second.

`CC(C)c1cccc(C(C)C)c1NC(=O)NS(=O)(=O)N(C(C)C)C(C)C` [Example 20, N-[2,6-bis(1-methylethyl)phenyl]-N′-[[bis(1-methylethyl)amino]-sulfonyl]-urea] and `CCOc1ccc2nc(S(=O)(=O)NC(=O)Nc3c(C(C)C)cccc3C(C)C)sc2c1` [Example 239, N-[2,6-bis(1-methylethyl)phenyl]-N′-[(6-ethoxy-2-benzothiazolyl)sulfonyl]-urea] cannot be ordered by inhibition at 10 µM: less than 10% for the first, less than 10% for the second.

First: CCCCCCCCCCCCN(CCCCCCCCCCCC)S(=O)(=O)NC(=O)Nc1c(C(C)C)cccc1C(C)C [Example 76, Urea, N-[2,6-bis(1-methylethyl)phenyl]-N′-[(didodecylamino)sulfonyl]-]
Second: CCCCCCCCCC(=O)NS(=O)(=O)Oc1c(C(C)C)cccc1C(C)C [Example 106, Sulfamic acid, (1-oxodecyl)-, 2,6-bis(1-methylethyl)phenyl ester]
The inhibition at 10 µM of the first is lower: less than 10% for the first, 72.3% for the second.

First: CC(C)c1cc(C(C)C)c(CC(=O)NS(=O)(=O)Oc2c(C(C)C)cc(C(C)(C)C)cc2C(C)C)c(C(C)C)c1 [Example 190, [(2,4,6-Triisopropyl-phenyl)-acetyl]-sulfamic acid 4-tert-butyl-2,6-diisopropyl-phenyl ester]
Second: CC(C)c1cc(C(C)C)c(CC(=O)NS(=O)(=O)Oc2c(C(C)C)cc(NS(C)(=O)=O)cc2C(C)C)c(C(C)C)c1 [Example 227, [(2,4,6-Triisopropyl-phenyl)-acetyl]-sulfamic acid 2,6-diisopropyl-4-methanesulfonylamino-phenyl ester]
The inhibition at 10 µM of the first is lower: 27.6% for the first, 77.3% for the second.

Compound `CC(C)c1cc(C(C)C)c(CC(=O)NS(=O)(=O)Oc2c(C(C)C)cc(NC(=O)C(N)Cc3c[nH]c4ccccc34)cc2C(C)C)c(C(C)C)c1` (stereo not shown) [Example 204, [(2,4,6-Triisopropyl-phenyl)-acetyl]-sulfamic acid 4-[2-amino-3-(1H-indol-3-yl)-propionylamino]-2,6-diisopropyl-phenyl ester] has an inhibition at 10 µM of 70%.

Same assay, conditions: Homo sapiens; 10 μM compound; ECV-304 NF-κB.βlaZ cells stimulated with 10 ng/mL TNF-α or 100 pg/mL IL-1β, 6 hours at 37° C.; inhibition of maximum blue/green ratio; read-out: Percent Inhibition at 10 μM

Compared with `CC(C)(C)c1cccc(C(C)(C)C)c1OC(=O)NS(=O)(=O)Nc1ccccc1` [Example 15, Carbamic acid, [(phenylamino)sulfonyl]-, 2,6-bis(1,1-dimethylethyl)-phenyl ester], `COc1cc(C(C)(C)C)c(OC(=O)NS(=O)(=O)NCC(c2ccccc2)c2ccccc2)c(C(C)(C)C)c1` [Example 47, Carbamic acid, [[(2,2-diphenylethyl)amino]sulfonyl]-, 2,6-bis(1,1-dimethylethyl)-4-methoxyphenyl ester] is higher in inhibition at 10 µM: 12.6% for the first, 41.9% for the second.

First: CC(C)c1cc(F)cc(C(C)C)c1OC(=O)NS(=O)(=O)Oc1c(C(C)C)cccc1C(C)C [Example 184, Carbamic acid, [[2,6-bis(1-methylethyl)phenoxy]sulfonyl]-, 4-fluoro-2,6-bis(1-methylethyl)phenyl ester]
Second: CC(C)c1cccc(C(C)C)c1OC(=O)NS(=O)(=O)NC(=O)Oc1c(C(C)C)cccc1C(C)C [Example 141, Carbamic acid, sulfonylbis-, bis[2,6-bis(1-methylethyl)phenyl] ester]
The inhibition at 10 µM of the first is higher: 21.2% for the first, less than 10% for the second.

Compared with `CC(C)c1cccc(C(C)C)c1OC(=O)NS(=O)(=O)N(c1ccccc1)c1ccccc1` [Example 26, Carbamic acid, [(diphenylamino)sulfonyl]-, 2,6-bis(1-methylethyl)phenyl ester], `CC(C)c1cccc(C(C)C)c1OS(=O)(=O)NC(=O)Oc1c(-c2ccccc2)cccc1-c1ccccc1` [Example 114, Carbamic acid, [[2,6-bis(1-methylethyl)phenoxy]sulfonyl]-, [1,1′:3′,1″-terphenyl]-2′-yl ester] is lower in inhibition at 10 µM: 32.8% for the first, less than 10% for the second.

In the case of `CC(C)c1cccc(C(C)C)c1OC(=O)NS(=O)(=O)N1CCc2ccccc21` [Example 72, Carbamic acid, [(2,3-dihydro-1H-indol-1-yl)sulfonyl]-, 2,6-bis(1-methylethyl)-phenyl ester], the inhibition at 10 µM is reported as 14.1%.
